The test system of experiment [1] is Stable N2a cells expressing PS1 chimeric proteins. In words: Zeocin toxicity / cell viability assay (WST-1) in stable N2a cells expressing PS1 chimera. The class given is cell-based, mouse. As to the method:
(§1) Cultured stable N2a cells expressing chimeric PS1 polypeptides were tested for cell viability in the presence of increasing concentrations of zeocin and in the presence and absence of known presenilin inhibitors in multi-well formats (FIG. 11). […] In these assays, cell viability can be assayed by commercially available cell viability ELISA kits.
(§2) Stable N2a cells expressing PS1 chimeric proteins or the parental N2a cell line were plated at a density of 6.25×10^3 cells/well into 96-well tissue culture dishes in a volume of 90 µl/well. Serial dilutions of Zeocin were added (2 mg/ml to 0.0625 mg/ml final concentration) in a volume of 10 µl/well. In some experiments the γ-secretase inhibitor, […] (purchased from Bachem) was added at a final concentration of 1 μM to one set of wells. The cells were incubated from 2 to 3 days at 37° C. Then 10 μl of Cell Proliferation Reagent WST-1 (Roche Biochemical) was added to each well. The plate was shaken for 30 sec. then placed back in the 37° C. incubator. The plate was read at 450 nm after 30 min., 1 h, 2 h and 3h in a Benchmark Plus Absorbance Plate Reader (BioRad).
(Tetrazolium assays rely on reduction of a dye to a coloured formazan, in cell work by metabolically active cells.)

In experiment [2] the test system is parental PS1ΔBle cells. Particulars: parental PS1ΔBle cells expressing very low levels of PS1ΔBle.
Procedure: For the screen, a cell line that expresses very low levels of the PS1ΔBle protein is chosen so that the chimera is largely present as cleaved PS1 NTF and PS1ΔBleCTF. Thus, transgene-derived expression of a putative protein that facilitates increased accumulation of PS1ΔBle confers increased bleomycin (Zeocin) resistance to the target cell. […] After allowing infection/transgene expression for 2-3 days, the infected population of cells are subject to antibiotic selection in 1-2 mg/ml zeocin (5-10 times greater than the concentration normally used for selecting stable clones). At this higher concentration, only cells that accumulate several fold higher levels of PS1ΔBle relative to parental PS1ΔBle cells (that are resistant to 0.2 mg/ml), form colonies. […] If overexpression of a particular cDNA caused increased accumulation of PS1ΔBle, and therefore, an increased resistance to zeocin, in a clone, the cDNA rescued from the clone will confer increased resistance to the parental PS1ΔBle cells during the rescreening.
The subject of experiment [3] is parental N2a cell line. Particulars: parental cells; lowest zeocin concentration tested (0.2 mg/ml); FIG. 12. As for the experimental part: as §1, §2
Experiment [4] addresses T1, PS1-Sh ble polypeptide (UniProt P17493+P49768).
T1 construct: Sh ble protein (Ble, bleomycin/zeocin resistance protein of Streptoalloteichus hindustanus, 124 aa); expressed in transfected cells
In words: Level of PS1-Sh ble polypeptide after inhibitor treatment. Particulars: FIG. 13 legend. It counts as cell-based.

Experiment [5] addresses PS1 (Homo sapiens, UniProt P49768). Particulars: previously reported (Shearman et al., 2000); cited from earlier work.
Experiment [6] concerns the target PS2 (Homo sapiens, UniProt P49810). Particulars: previously reported (Shearman et al., 2000); cited from earlier work.

Take `Cc1c(N)nc([C@H](CC(N)=O)NC[C@H](N)C(N)=O)nc1C(=O)N[C@H](C(=O)N[C@H](C)[C@@H](O)[C@H](C)C(=O)N[C@H](C(=O)NCCC1=N[C@@H](c2nc(C(=O)NCCCCN=C(N)N)cs2)CS1)[C@@H](C)O)[C@@H](O[C@@H]1O[C@@H](CO)[C@@H](O)[C@H](O)[C@@H]1O[C@H]1O[C@H](CO)[C@@H](O)[C@H](OC(N)=O)[C@@H]1O)c1cnc[nH]1` [zeocin]: the “zeocin concentrations at which cells are viable” value in experiment [1] (cells expressing PS1 chimera, 2 to 3 days at 37° C., WST-1 read at 450 nm, FIG. 12) was in the range of 0 to 4 mg/mL. Besides, the “zeocin concentration to which cells are resistant” value in experiment [2] worked out at 0.2 mg/mL. The “cell viability in presence of zeocin” value in experiment [3] is “significantly less viable”.

As to `CC(C)C[C@H](NC(=O)[C@H](Cc1ccccc1)C[C@@H](O)[C@H](Cc1ccccc1)NC(=O)OC(C)(C)C)C(=O)N[C@@H](Cc1ccccc1)C(N)=O` [L-685,458], the “levels of the PS1-Sh ble polypeptide” value in experiment [4] is “reduces the levels”. In addition, the “zeocin concentrations at which inhibitor-treated cells are viable” value in experiment [1] (cells expressing PS1 chimera treated with inhibitor (1 μM), FIG. 13) was 0 to 2 mg/mL. The “resistance to zeocin conferred by the PS1 chimera” value in experiment [1] (inhibitor at final concentration of 1 μM plus zeocin, FIG. 13) is listed as “reduced the resistance to zeocin”. Besides, the “binding to PS1” value in experiment [5] was “bind”. For the same compound, the “binding to PS2” value in experiment [6] was “bind”.

(Values after patent US20030022151A1, “Functional screening” (priority 2001, published 2003).)
